Changes are numbered by the printed parent chain.
What was measured:
Design in all cases: WT (1–553); expressed in transfected cells
GLP-2R Y182^1.43A = molecular target: T1, GLP-2R Y182^1.43A (Homo sapiens, UniProt O95838, Y182A); test: radioligand competition binding, Y182^1.43A; conditions: COS-7, Y182^1.43A; [^125I]GLP-2(1–33, M10Y) 10–15 pM, 4 h, 4 °C; mean ± SEM, n ≥ 3 in duplicate
T1 sequence (O95838 1-553 Y182A): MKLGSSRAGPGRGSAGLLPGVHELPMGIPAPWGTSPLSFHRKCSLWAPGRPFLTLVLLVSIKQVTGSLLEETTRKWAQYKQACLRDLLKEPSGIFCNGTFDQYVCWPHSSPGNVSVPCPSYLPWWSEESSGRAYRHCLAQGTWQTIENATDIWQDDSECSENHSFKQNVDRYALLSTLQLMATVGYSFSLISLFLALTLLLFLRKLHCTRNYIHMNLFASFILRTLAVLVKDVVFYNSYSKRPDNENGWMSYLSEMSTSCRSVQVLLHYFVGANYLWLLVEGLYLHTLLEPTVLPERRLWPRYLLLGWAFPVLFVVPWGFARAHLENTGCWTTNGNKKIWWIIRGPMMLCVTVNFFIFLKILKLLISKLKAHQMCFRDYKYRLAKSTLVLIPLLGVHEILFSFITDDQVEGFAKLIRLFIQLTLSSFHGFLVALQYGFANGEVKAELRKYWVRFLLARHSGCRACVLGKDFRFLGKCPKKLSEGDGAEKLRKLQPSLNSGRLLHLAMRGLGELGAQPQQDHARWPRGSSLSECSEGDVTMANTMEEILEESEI
Experimental: (§1) A stepwise oxidation reaction was performed by addition of 6 aliquots of 5 µL ChloramineT (30 µL/mL) with a 1-min interval during constant stirring. The reaction was terminated by the addition of 400 µL phase A (0.1% trifluoracetic acid) before being fractionated into 1 mL volume by reverse-phase high-performance liquid chromatography (RP-HPLC, Waters 600 SimiPrep system) on a C18 column. The iodinated protein was […] by increasing concentrations of phase B (Acetonitrile + 0.1% TFA) and tested for competitive binding ability.
(§2) One day before transfection, the COS-7 cells were seeded in 75 cm^2 culture flasks (3 million cells/flask) in DMEM, containing 3.9 g/L NaHCO3 and supplemented with 10% FBS, 1% L-glutamine, 180 units/mL penicillin and 45 µg/mL streptomycin. After an overnight culture at 37 °C, 10% CO2 and 95% air humidity, the cells were transiently transfected with different GLP-2R constructs or pcDNA3.1 vector as previously described.[52] Following 24-h incubation, the cells were transferred to Costa® microtiter plates (150,000 cells/well, PerkinElmer) to achieve a 5%–10% specific binding. […] The cells were then washed twice in binding buffer (4 °C), lysed and counted for radioactivity using a Wallac Gamma Counter (PerkinElmer).

GLP-2R Y186^1.47A = molecular target: T2, GLP-2R Y186^1.47A (Homo sapiens, UniProt O95838, Y186A); test: radioligand competition binding, Y186^1.47A; conditions: COS-7, Y186^1.47A; [^125I]GLP-2(1–33, M10Y) 10–15 pM, 4 h, 4 °C; n ≥ 3 in duplicate
T2 sequence (O95838 1-553 Y186A): T1 sequence (O95838 1-553 Y182A) with A182Y, Y186A
Experimental: as §1, §2

GLP-2R N247^ECL1A = molecular target: T3, GLP-2R N247^ECL1A (Homo sapiens, UniProt O95838, N247A); test: radioligand competition binding, N247^ECL1A; conditions: COS-7, N247^ECL1A; [^125I]GLP-2(1–33, M10Y) 10–15 pM, 4 h, 4 °C; mean ± SEM, n ≥ 3 in duplicate
T3 sequence (O95838 1-553 N247A): T1 sequence (O95838 1-553 Y182A) with A182Y, N247A
Experimental: as §1, §2

| SMILES | % Binding of WT (GLP-2R Y182^1.43A) | % Binding of WT (GLP-2R Y186^1.47A) | % Binding of WT (GLP-2R N247^ECL1A) |
| --- | --- | --- | --- |
| CC[C@H](C)[C@H](NC(=O)[C@H](Cc1ccccc1)NC(=O)[C@H](CC(=O)O)NC(=O)[C@H](CCCNC(=N)N)NC(=O)[C@H](C)NC(=O)[C@H](C)NC(=O)[C@H](CC(C)C)NC(=O)[C@H](CC(N)=O)NC(=O)[C@H](CC(=O)O)NC(=O)[C@H](CC(C)C)NC(=O)[C@@H](NC(=O)[C@@H](NC(=O)[C@H](CC(N)=O)NC(=O)[C@H](CCSC)NC(=O)[C@H](CCC(=O)O)NC(=O)[C@H](CC(=O)O)NC(=O)[C@H](CO)NC(=O)[C@H](Cc1ccccc1)NC(=O)[C@H](CO)NC(=O)CNC(=O)[C@H](CC(=O)O)NC(=O)[C@H](C)NC(=O)[C@@H](N)Cc1c[nH]cn1)[C@@H](C)O)[C@@H](C)CC)C(=O)N[C@@H](CC(N)=O)C(=O)N[C@@H](Cc1c[nH]c2ccccc12)C(=O)N[C@@H](CC(C)C)C(=O)N[C@H](C(=O)N[C@@H](CCC(N)=O)C(=O)N[C@H](C(=O)N[C@@H](CCCCN)C(=O)N[C@H](C(=O)N[C@H](C(=O)N[C@@H](CC(=O)O)C(=O)O)[C@@H](C)O)[C@@H](C)CC)[C@@H](C)O)[C@@H](C)CC [Human GLP-2 (1–33)] | 3.4 ± 1.0 % | N.B. | 130.7 ± 4.5 % |
| CC[C@H](C)[C@H](NC(=O)[C@H](Cc1ccccc1)NC(=O)[C@H](CC(=O)O)NC(=O)[C@H](CCCNC(=N)N)NC(=O)[C@H](C)NC(=O)[C@H](C)NC(=O)[C@H](CC(C)C)NC(=O)[C@H](CC(N)=O)NC(=O)[C@H](CC(=O)O)NC(=O)[C@H](CC(C)C)NC(=O)[C@@H](NC(=O)[C@@H](NC(=O)[C@H](CC(N)=O)NC(=O)[C@H](CCSC)NC(=O)[C@H](CCC(=O)O)NC(=O)[C@H](CC(=O)O)NC(=O)[C@H](CO)NC(=O)[C@H](Cc1ccccc1)NC(=O)[C@H](CO)NC(=O)CNC(=O)[C@H](CC(=O)O)NC(=O)CNC(=O)[C@@H](N)Cc1c[nH]cn1)[C@@H](C)O)[C@@H](C)CC)C(=O)N[C@@H](CC(N)=O)C(=O)N[C@@H](Cc1c[nH]c2ccccc12)C(=O)N[C@@H](CC(C)C)C(=O)N[C@H](C(=O)N[C@@H](CCC(N)=O)C(=O)N[C@H](C(=O)N[C@@H](CCCCN)C(=O)N[C@H](C(=O)N[C@H](C(=O)N[C@@H](CC(=O)O)C(=O)O)[C@@H](C)O)[C@@H](C)CC)[C@@H](C)O)[C@@H](C)CC [Teduglutide] | 3.2 ± 1.3 % | N.B. | 135.2 ± 4.4 % |
